Data as given in the supplement of paper PMC10307832.

Columns and labels:
Assay in all cases: relative viability (nuclei count vs DMSO), 5 days (fraction); higher = more cells survive
[1] = compound: CN(C/C=C/C1=CC=C(C=C1)Cl)CC2=CC=CC=C2N(CCO)S(=O)(=O)C3=CC=C(C=C3)OC [KN-93] + C[C@@H](Oc1cc(-c2cnn(C3CCNCC3)c2)cnc1N)c1c(Cl)ccc(F)c1Cl [Crizotinib] (partner 1 µM)
Summary of the method: (§1)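 Relative viability equals treated-well nuclei counts divided by vehicle-well nuclei counts. Counts came from 4× images of lung cancer cell lines grown in 1536-well plates for 5 days after pin-tool dosing on the day after seeding. Dosing used one drug alone or a fixed anchor-drug dose plus five library-drug doses (not always all listed) in √10 steps, and values are medians of duplicate plates.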

[2] = compound: CN(C/C=C/C1=CC=C(C=C1)Cl)CC2=CC=CC=C2N(CCO)S(=O)(=O)C3=CC=C(C=C3)OC [KN-93] + O=C(c1cc(Cc2n[nH]c(=O)c3ccccc23)ccc1F)N1CCN(C(=O)C2CC2)CC1 [Olaparib] (partner 8 µM)
Summary of the method: as §1

[3] = compound: CN(C/C=C/C1=CC=C(C=C1)Cl)CC2=CC=CC=C2N(CCO)S(=O)(=O)C3=CC=C(C=C3)OC [KN-93] + C[C@]1(O)C[C@@H](c2nc(-c3ccc4ccc(-c5ccccc5)nc4c3)c3c(N)nccn32)C1 [Linsitinib] (partner 1 µM)
Summary of the method: as §1

[4] = compound: CN(C/C=C/C1=CC=C(C=C1)Cl)CC2=CC=CC=C2N(CCO)S(=O)(=O)C3=CC=C(C=C3)OC [KN-93] + Nc1nc2[nH]cc(CCc3ccc(C(=O)N[C@@H](CCC(=O)O)C(=O)O)cc3)c2c(=O)[nH]1 [Pemetrexed] (partner 0.2 µM)
Summary of the method: as §1

[5] = compound: CN(C/C=C/C1=CC=C(C=C1)Cl)CC2=CC=CC=C2N(CCO)S(=O)(=O)C3=CC=C(C=C3)OC [KN-93] + CC(=O)Nc1cccc(-n2c(=O)n(C3CC3)c(=O)c3c(Nc4ccc(I)cc4F)n(C)c(=O)c(C)c32)c1 [Trametinib] (partner 0.02 µM)
Summary of the method: as §1

Row | Cell Line | relative viability ([1]; first compound 0.08 µM) | relative viability ([1]; first compound 0.253 µM) | relative viability ([1]; first compound 2.53 µM) | relative viability ([1]; first compound 8 µM) | relative viability ([2]; first compound 0.08 µM) | relative viability ([2]; first compound 0.253 µM) | relative viability ([2]; first compound 2.53 µM) | relative viability ([2]; first compound 8 µM) | relative viability ([3]; first compound 0.08 µM) | relative viability ([3]; first compound 0.253 µM) | relative viability ([3]; first compound 2.53 µM) | relative viability ([3]; first compound 8 µM) | relative viability ([4]; first compound 0.08 µM) | relative viability ([4]; first compound 0.253 µM) | relative viability ([4]; first compound 2.53 µM) | relative viability ([4]; first compound 8 µM) | relative viability ([5]; first compound 0.08 µM) | relative viability ([5]; first compound 0.253 µM) | relative viability ([5]; first compound 2.53 µM) | relative viability ([5]; first compound 8 µM)
1 | PC-14 | 0.89 | 0.842 | 0.953 | 0.585 | 0.252 | 0.195 | 0.252 | 0.218 | 0.855 | 0.976 | 1.07 | 0.824 | 0.154 | 0.126 | 0.139 | 0.131 | 0.553 | 0.802 | 0.696 | 0.524
2 | RERF-LC-KJ | 0.803 | 0.848 | 0.917 | 0.639 | 0.938 | 0.97 | 0.836 | 0.545 | 0.82 | 0.82 | 0.967 | 0.611 | 0.504 | 0.485 | 0.46 | 0.461 | 0.924 | 0.869 | 0.83 | 0.624
3 | SK-LU-1 | 0.834 | 1.26 | 0.915 | 0.673 | 0.412 | 0.471 | 0.463 | 0.276 | 1.06 | 1.12 | 1.21 | 0.602 | 0.967 | 1.19 | 1.16 | 0.688 | 0.46 | 0.594 | 0.51 | 0.317
4 | SK-MES-1 | 1.05 | 0.979 | 1.27 | 0.8 | 0.648 | 0.665 | 0.935 | 0.333 | 1.06 | 1.05 | 1.12 | 1.02 | 1.03 | 0.945 | 1.05 | 0.806 | 0.561 | 0.493 | 0.514 | 0.407
5 | SW 1573 | 0.766 | 0.926 | 0.822 | 0.33 | 0.456 | 0.589 | 0.523 | 0.22 | 0.906 | 0.884 | 0.714 | 0.349 | 1.07 | 0.916 | 0.981 | 0.307 | 0.518 | 0.565 | 0.627 | 0.149
6 | UMC-11 |  | 0.901 | 0.413 | 0.457 | 0.43 | 0.402 | 0.327 | 0.214 |  | 1.19 | 1.13 | 0.713 | 0.697 | 1.01 | 1.05 | 0.467 | 0.607 | 0.761 | 0.858 | 0.223
